Results on 14 compounds are retold here after ChEMBL document CHEMBL1148604 (J Med Chem, 2006).

Values after ≈ are worked out from the molar mass of the structure shown.

The subject of one assay is Escherichia coli. Briefly: Inhibitory activity against Escherichia coli ANSI. The class given is functional.
For orientation: MIC means the lowest concentration found to suppress growth. A lower MIC goes with inhibition by little substance. As to `CC1=C(O)C(C)(Cc2ccccc2Cl)SC1=O` (stereo unspecified), the MIC was above 1000 µM.

The compound `C=CCCCCCCC1(C)SC(=O)C(C)=C1O` (stereo unspecified) registered an MIC of 200 µM (≈ 50.9 µg/mL).

`CC1=C(O)C(C)(Cc2cc(C)ccc2C)SC1=O` (stereo unspecified) displayed an MIC above 1000 µM.

`COc1cc(CC2(C)SC(O)=C(C)C2=O)cc(OC)c1` (stereo unspecified) came in with an MIC above 1000 µM.

With `CCCCCCCCCC1(C)SC(O)=C(C)C1=O` (stereo unspecified), the lowest concentration to inhibit growth (MIC) was 100 µM (≈ 27 µg/mL).

In turn, `C=CCCC1(C)SC(=O)C(C)=C1O` (stereo unspecified) registered an MIC above 1000 µM.

`CC1=C(O)C(C)(Cc2cccc(C)c2)SC1=O` (stereo unspecified) gave an MIC above 1000 µM.

`C=C/C(C)=C/[C@@]1(C)SC(=O)C(C)=C1O` [THIOLACTOMYCIN]: the MIC amounted to 6 µM (≈ 1.26 µg/mL).

`CC1=C(O)C(C)(CC2CCC2)SC1=O` (stereo unspecified) registered an MIC above 1000 µM.

In turn, `CC1=C(O)C(C)(Cc2ccc3ccccc3c2)SC1=O` (stereo unspecified) had an MIC above 1000 µM.

For another assay, the system named is Mycobacterium tuberculosis. Nature of the assay: Inhibitory activity against Mycobacterium tuberculosis H37Rv. The class given is functional.
`CCCCCCCCCCCCCCCCCCC1(C)SC(O)=C(C)C1=O` (stereo unspecified): the MIC was above 1000 µM.

`CCCCCCCCCCCCCCCCC1(C)SC(O)=C(C)C1=O` (stereo unspecified): the MIC was above 1000 µM.

On to `CCCCCCCCCCCCCCCC1(C)SC(O)=C(C)C1=O` (stereo unspecified), for which the lowest concentration to inhibit growth (MIC) was 500 µM (≈ 177 µg/mL).

In the case of `CC1=C(O)C(C)(Cc2ccccc2Cl)SC1=O` (stereo unspecified), the MIC was 1000 µM (≈ 269 µg/mL).

As for `C=CCCCCCCC1(C)SC(=O)C(C)=C1O` (stereo unspecified), 500 µM (≈ 127 µg/mL) was the least that counted as inhibitory (MIC).

The compound `CC1=C(O)C(C)(Cc2cc(C)ccc2C)SC1=O` (stereo unspecified) came in with an MIC above 1000 µM.

Compound `COc1cc(CC2(C)SC(O)=C(C)C2=O)cc(OC)c1` (stereo unspecified) showed an MIC above 1000 µM.

Compound `CCCCCCCCCC1(C)SC(O)=C(C)C1=O` (stereo unspecified) gave an MIC of 500 µM (≈ 135 µg/mL).

`C=CCCC1(C)SC(=O)C(C)=C1O` (stereo unspecified) showed an MIC above 1000 µM.

The compound `CC1=C(O)C(C)(Cc2cccc(C)c2)SC1=O` (stereo unspecified) gave an MIC of 1000 µM (≈ 248 µg/mL).

Compound `C=C/C(C)=C/[C@@]1(C)SC(=O)C(C)=C1O` [THIOLACTOMYCIN] registered a minimal inhibitory concentration (MIC) of 62.5 µM (≈ 13.1 µg/mL). Compared with the last compound, the MIC is about 16-fold lower.

As to `CC1=C(O)C(C)(CC2CCC2)SC1=O` (stereo unspecified), the MIC is 1000 µM (≈ 212 µg/mL).

`CC1=C(O)C(C)(Cc2ccc3ccccc3c2)SC1=O` (stereo unspecified) came in with an MIC of 500 µM (≈ 142 µg/mL). Compared with the last compound, the MIC is about 2-fold lower.

Compound `CCCCCCCCCCCCCCCCCCCCC1(C)SC(O)=C(C)C1=O` (stereo unspecified) yielded an MIC above 1000 µM.

The next assay has as its target T1, 3-oxoacyl-[acyl-carrier-protein] synthase 1 (Escherichia coli K-12, UniProt P0A953).
T1 sequence (P0A953 whole entry): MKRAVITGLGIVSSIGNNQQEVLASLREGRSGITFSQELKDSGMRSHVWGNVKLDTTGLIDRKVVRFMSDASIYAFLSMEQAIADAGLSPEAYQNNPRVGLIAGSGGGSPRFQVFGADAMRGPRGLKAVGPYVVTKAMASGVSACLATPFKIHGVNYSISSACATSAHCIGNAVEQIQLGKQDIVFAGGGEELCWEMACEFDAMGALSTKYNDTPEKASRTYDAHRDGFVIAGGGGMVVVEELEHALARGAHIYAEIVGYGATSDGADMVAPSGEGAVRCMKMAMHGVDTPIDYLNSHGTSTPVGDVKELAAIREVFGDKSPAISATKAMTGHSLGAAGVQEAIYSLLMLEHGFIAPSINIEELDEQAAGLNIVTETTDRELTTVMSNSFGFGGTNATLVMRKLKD
Nature of the assay: Inhibitory activity against FabB from Escherichia coli ANSI.
The IC50 is the concentration that gives 50% inhibition. The low end stands for greater potency, the high end for weaker potency. In the case of `CC1=C(O)C(C)(Cc2ccccc2Cl)SC1=O` (stereo unspecified), the IC50 is above 1000 µM.

In turn, `C=CCCCCCCC1(C)SC(=O)C(C)=C1O` (stereo unspecified) registered an IC50 above 1000 µM.

`CC1=C(O)C(C)(Cc2cc(C)ccc2C)SC1=O` (stereo unspecified) gave an IC50 above 1000 µM.

`COc1cc(CC2(C)SC(O)=C(C)C2=O)cc(OC)c1` (stereo unspecified) showed an IC50 above 1000 µM.

The compound `CCCCCCCCCC1(C)SC(O)=C(C)C1=O` (stereo unspecified) registered an IC50 above 1000 µM.

`C=CCCC1(C)SC(=O)C(C)=C1O` (stereo unspecified) returned an IC50 above 1000 µM.

The compound `CC1=C(O)C(C)(Cc2cccc(C)c2)SC1=O` (stereo unspecified) had an IC50 above 1000 µM.

With `C=C/C(C)=C/[C@@]1(C)SC(=O)C(C)=C1O` [THIOLACTOMYCIN], the midpoint of inhibition, the IC50, lay at 12 µM.

With `CC1=C(O)C(C)(CC2CCC2)SC1=O` (stereo unspecified), the IC50 is above 1000 µM.

As for `CC1=C(O)C(C)(Cc2ccc3ccccc3c2)SC1=O` (stereo unspecified), the IC50 was above 1000 µM.

The next assay addresses T2, 3-oxoacyl-[acyl-carrier-protein] synthase 3 (Escherichia coli, UniProt C3TDZ2).
T2 sequence (C3TDZ2 whole entry): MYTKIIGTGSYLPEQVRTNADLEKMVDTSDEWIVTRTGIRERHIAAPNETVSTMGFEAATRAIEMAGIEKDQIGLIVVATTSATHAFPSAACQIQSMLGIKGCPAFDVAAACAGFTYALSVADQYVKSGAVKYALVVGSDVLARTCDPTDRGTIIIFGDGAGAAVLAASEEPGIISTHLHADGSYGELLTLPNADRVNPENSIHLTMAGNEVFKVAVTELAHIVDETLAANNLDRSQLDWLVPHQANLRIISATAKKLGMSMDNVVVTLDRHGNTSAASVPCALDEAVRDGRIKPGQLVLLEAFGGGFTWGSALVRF
Nature of the assay: Inhibitory activity against FabH from Escherichia coli ANSI.
`CC1=C(O)C(C)(Cc2ccccc2Cl)SC1=O` (stereo unspecified) yielded an IC50 above 1000 µM.

Turning to `C=CCCCCCCC1(C)SC(=O)C(C)=C1O` (stereo unspecified), the IC50 was above 1000 µM.

With `CC1=C(O)C(C)(Cc2cc(C)ccc2C)SC1=O` (stereo unspecified), the IC50 is above 1000 µM.

`COc1cc(CC2(C)SC(O)=C(C)C2=O)cc(OC)c1` (stereo unspecified) registered an IC50 above 1000 µM.

Take `CCCCCCCCCC1(C)SC(O)=C(C)C1=O` (stereo unspecified): the IC50 was above 100 µM.

Compound `C=CCCC1(C)SC(=O)C(C)=C1O` (stereo unspecified) came in with an IC50 above 1000 µM.

In turn, `CC1=C(O)C(C)(Cc2cccc(C)c2)SC1=O` (stereo unspecified) displayed an IC50 above 1000 µM.

Compound `CC1=C(O)C(C)(CC2CCC2)SC1=O` (stereo unspecified) yielded an IC50 above 1000 µM.

In the case of `CC1=C(O)C(C)(Cc2ccc3ccccc3c2)SC1=O` (stereo unspecified), the IC50 is above 1000 µM.

In another assay the target is T3, Mycobacterial beta-ketoacyl-[acyl-carrier-protein] synthase III (Mycobacterium tuberculosis, UniProt P9WNG3).
T3 sequence (P9WNG3 whole entry): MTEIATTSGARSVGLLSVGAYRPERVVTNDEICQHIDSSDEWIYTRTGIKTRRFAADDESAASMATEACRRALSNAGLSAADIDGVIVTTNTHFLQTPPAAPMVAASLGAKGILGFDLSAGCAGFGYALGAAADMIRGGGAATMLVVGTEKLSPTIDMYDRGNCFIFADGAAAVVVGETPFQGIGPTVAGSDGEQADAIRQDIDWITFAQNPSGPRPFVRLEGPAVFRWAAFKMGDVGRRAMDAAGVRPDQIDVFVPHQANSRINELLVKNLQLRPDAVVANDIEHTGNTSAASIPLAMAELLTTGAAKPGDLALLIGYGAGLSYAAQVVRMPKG
Briefly: Inhibitory activity against FabH from Mycobacterium tuberculosis H37Rv.
`CC1=C(O)C(C)(Cc2ccccc2Cl)SC1=O` (stereo unspecified) returned an IC50 above 1000 µM.

`C=CCCCCCCC1(C)SC(=O)C(C)=C1O` (stereo unspecified) showed an IC50 above 1000 µM.

`CC1=C(O)C(C)(Cc2cc(C)ccc2C)SC1=O` (stereo unspecified) came in with an IC50 above 1000 µM.

As for `COc1cc(CC2(C)SC(O)=C(C)C2=O)cc(OC)c1` (stereo unspecified), the IC50 was above 1000 µM.

Compound `CCCCCCCCCC1(C)SC(O)=C(C)C1=O` (stereo unspecified) displayed an IC50 above 100 µM.

With `C=CCCC1(C)SC(=O)C(C)=C1O` (stereo unspecified), the IC50 was above 1000 µM.

As to `CC1=C(O)C(C)(Cc2cccc(C)c2)SC1=O` (stereo unspecified), the IC50 was above 1000 µM.

For `CC1=C(O)C(C)(CC2CCC2)SC1=O` (stereo unspecified), the half-inhibitory concentration (IC50) is above 1000 µM.

In turn, `CC1=C(O)C(C)(Cc2ccc3ccccc3c2)SC1=O` (stereo unspecified) returned an IC50 above 100 µM.

The target of the next assay is T4, 3-oxoacyl-[acyl-carrier-protein] synthase 2 (Mycobacterium tuberculosis, UniProt P9WQD7).
T4 sequence (P9WQD7 whole entry): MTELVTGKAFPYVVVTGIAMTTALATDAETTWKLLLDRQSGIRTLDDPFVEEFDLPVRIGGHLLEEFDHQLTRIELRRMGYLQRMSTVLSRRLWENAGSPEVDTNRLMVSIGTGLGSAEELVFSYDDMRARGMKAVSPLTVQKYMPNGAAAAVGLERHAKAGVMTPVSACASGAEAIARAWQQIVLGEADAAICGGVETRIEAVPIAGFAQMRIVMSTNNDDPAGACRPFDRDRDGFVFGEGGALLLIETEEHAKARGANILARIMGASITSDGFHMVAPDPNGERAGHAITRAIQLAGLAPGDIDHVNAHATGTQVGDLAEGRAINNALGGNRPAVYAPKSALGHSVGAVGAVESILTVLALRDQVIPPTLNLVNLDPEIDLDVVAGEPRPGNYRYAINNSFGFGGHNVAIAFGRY
Briefly: Inhibitory activity against KasB from Mycobacterium tuberculosis H37Rv.
Turning to `CC1=C(O)C(C)(Cc2ccccc2Cl)SC1=O` (stereo unspecified), the IC50 was above 1000 µM.

For the compound `C=CCCCCCCC1(C)SC(=O)C(C)=C1O` (stereo unspecified), the half-inhibitory concentration (IC50) was above 1000 µM.

For `CC1=C(O)C(C)(Cc2cc(C)ccc2C)SC1=O` (stereo unspecified), the IC50 is above 1000 µM.

Take `COc1cc(CC2(C)SC(O)=C(C)C2=O)cc(OC)c1` (stereo unspecified): the IC50 is above 1000 µM.

For `CCCCCCCCCC1(C)SC(O)=C(C)C1=O` (stereo unspecified), the IC50 is above 1000 µM.

Consider `C=CCCC1(C)SC(=O)C(C)=C1O` (stereo unspecified), for which the IC50 was above 1000 µM.

Turning to `CC1=C(O)C(C)(Cc2cccc(C)c2)SC1=O` (stereo unspecified), the IC50 was above 1000 µM.

On to `C=C/C(C)=C/[C@@]1(C)SC(=O)C(C)=C1O` [THIOLACTOMYCIN], for which the IC50 stood at 6 µM.

For the compound `CC1=C(O)C(C)(CC2CCC2)SC1=O` (stereo unspecified), the IC50 is above 1000 µM.

`CC1=C(O)C(C)(Cc2ccc3ccccc3c2)SC1=O` (stereo unspecified) came in with an IC50 above 1000 µM.

The next assay deals with wild-type apo-KasA (Mycobacterium tuberculosis, UniProt P9WQD9). Briefly: Inhibitory activity against KasA from Mycobacterium tuberculosis H37Rv.
Sequence of wild-type apo-KasA (P9WQD9 whole entry, looked up): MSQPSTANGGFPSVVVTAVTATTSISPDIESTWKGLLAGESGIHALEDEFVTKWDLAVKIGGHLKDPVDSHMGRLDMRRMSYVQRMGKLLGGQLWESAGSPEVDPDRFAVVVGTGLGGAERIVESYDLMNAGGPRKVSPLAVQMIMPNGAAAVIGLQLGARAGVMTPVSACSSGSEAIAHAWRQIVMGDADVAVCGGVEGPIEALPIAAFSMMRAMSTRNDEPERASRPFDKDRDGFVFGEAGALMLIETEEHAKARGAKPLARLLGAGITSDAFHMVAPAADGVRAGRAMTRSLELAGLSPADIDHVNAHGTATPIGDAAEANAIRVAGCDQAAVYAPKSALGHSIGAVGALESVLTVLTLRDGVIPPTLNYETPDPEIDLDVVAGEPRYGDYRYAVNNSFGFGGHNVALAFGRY
`CC1=C(O)C(C)(Cc2ccccc2Cl)SC1=O` (stereo unspecified) had an IC50 above 1000 µM.

Compound `C=CCCCCCCC1(C)SC(=O)C(C)=C1O` (stereo unspecified) displayed an IC50 above 1000 µM.

For `CC1=C(O)C(C)(Cc2cc(C)ccc2C)SC1=O` (stereo unspecified), the IC50 was above 1000 µM.

As to `COc1cc(CC2(C)SC(O)=C(C)C2=O)cc(OC)c1` (stereo unspecified), the IC50 was above 1000 µM.

The compound `CCCCCCCCCC1(C)SC(O)=C(C)C1=O` (stereo unspecified) returned an IC50 above 1000 µM.

On to `C=CCCC1(C)SC(=O)C(C)=C1O` (stereo unspecified), for which the IC50 is above 1000 µM.

`CC1=C(O)C(C)(Cc2cccc(C)c2)SC1=O` (stereo unspecified) gave an IC50 above 1000 µM.

On to `CC1=C(O)C(C)(CC2CCC2)SC1=O` (stereo unspecified), for which the IC50 was above 1000 µM.

The compound `CC1=C(O)C(C)(Cc2ccc3ccccc3c2)SC1=O` (stereo unspecified) gave an IC50 above 1000 µM.
